# Results as given in patent US6025387A, “Gastroprotective flavone/flavanone compounds with therapeutic effect on inflammatory bowel disease” (Dong a Pharmaceutical Co., Ltd., priority 1996, dated 2000).
# Tests used:
# 5-lipoxygenase = molecular target: T1, 5-lipoxygenase (Rattus norvegicus, UniProt P12527); assay: 5-lipoxygenase activity (LTB4 in A23187-stimulated peritoneal neutrophils); type: cell-based
# T1 construct: endogenous in cells; host or cells: casein-elicited rat peritoneal neutrophils
# T1 sequence (P12527 1-673): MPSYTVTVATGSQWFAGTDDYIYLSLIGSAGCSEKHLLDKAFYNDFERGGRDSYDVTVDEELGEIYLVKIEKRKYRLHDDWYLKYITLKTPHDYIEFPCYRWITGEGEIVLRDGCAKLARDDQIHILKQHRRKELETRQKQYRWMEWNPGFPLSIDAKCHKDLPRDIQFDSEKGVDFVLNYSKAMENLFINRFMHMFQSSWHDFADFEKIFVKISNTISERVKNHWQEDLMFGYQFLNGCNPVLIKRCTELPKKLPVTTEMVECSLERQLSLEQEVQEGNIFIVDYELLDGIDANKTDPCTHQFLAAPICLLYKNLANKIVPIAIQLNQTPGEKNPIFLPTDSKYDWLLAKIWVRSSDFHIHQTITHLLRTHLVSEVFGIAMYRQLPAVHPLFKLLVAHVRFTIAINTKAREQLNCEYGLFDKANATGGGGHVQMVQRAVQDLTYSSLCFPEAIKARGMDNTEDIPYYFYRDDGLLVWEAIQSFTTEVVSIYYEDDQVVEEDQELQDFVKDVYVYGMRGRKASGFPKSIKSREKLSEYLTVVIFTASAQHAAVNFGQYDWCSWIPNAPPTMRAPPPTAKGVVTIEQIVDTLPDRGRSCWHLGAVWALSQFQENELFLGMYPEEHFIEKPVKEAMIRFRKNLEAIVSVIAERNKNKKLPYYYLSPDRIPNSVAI
# Experimental: Measurement of 5-lipooxygenase Activity
# Modified Safayhi et al.'s method (Safayhi, H., et al., Biochem. Pharmacol. 1985, 34: 2691) was used to this experiment. Peritoneal neutrophil was separated from the rat which was treated with casein solution. The compound was added to 10^7 cells (5×10^6 cells/mL, 2 mL) of neutrophil after 2 minutes Ca^2+ -ionophore, A23187 (1 μg/mL) was added and the mixture was incubared at 37° C. for 10 minutes. The reaction mixture was centrifuged and the supermatant was taken up. The amount of LTB4 in the supermatant was measured by radioimmunoassay.
# [1] = system: gastric mucosal damage induced by ethanolic HCl; assay: Gastritis model induced with ethanolic-HCl; type: in vivo, SD male rat; settings: po, 1 h, rat; for inhibition in vivo at 1 mg/kg: 1 mg/kg p.o.; for inhibition in vivo at 0.3 mg/kg: 0.3 mg/kg p.o.; for inhibition in vivo at 3 mg/kg: 3 mg/kg p.o.
# Experimental: Effect on the Gastritis Model Induced with Ethanolic-HCl.
# SD male rat(250-350 g) was fasted for 24 hours. The compound was orally administered in suspension of 5% HPMC, and after 1 hour 1.5 mL of 150 mM HCl-80% ethanol was orally administered. After 1 hour the rat was sacrifieced and the stomach was extracted and the ulcer index was measured. The ulcer index was shown by the area of hemorrhage lesion(Mizui, T, et al., Jpn. J. Pharmacol. 1983, 33: 939).
# cyclooxygenase = assay: Cyclooxygenase activity in HUVEC (PGF1 α synthesis); type: cell-based
# Experimental: Measurment of Cyclooxygenase Actvity
# After addition of the compound to cultured HUVEC, the HUVEC was incubated at 37° C., for 30 minutes, then arachidonic acid (final concentration: 30 .rho.M) was added, and the HUVEC was additionally incubated at 37° C. for 15 minutes. The culture medium was taken, and the activity of cyclooxygenase for 6-Keto-PGF1 α or PGE2 was measured by radioimmunoassay (Mitchell, J. A., et al., Pro. Natl. Acad. Sci. USA 1994, 90: 11693-11697).
# **SC200 (ug/mL) : Concentration at increasing generation of […]
# gastric mucus secretion = assay: Measurement of gastric mucus; type: in vivo, SD male rat; settings: oral, rat
# Experimental: Measurement of Gastric Mucus
# The compound was orally administered into SD male rat (200~250 g). After 1 hour the stomach was extracted. The extracted stomach was immediately washed with 10 mL of cold 0.25M sucrose solution. The gastric mucosa was dyed with 0.1% alcian blue solution for 2 hours. After dyeing, the gastric mucosa was washed with 0.25M sucrose solution twice for 15 minutes and for 45 minutes. The dyed gastric mucosa was treated with 10 mL of 30% dioctyl sodium sulfosuccinate solution for 2 hours to extract dyed mucus completely and optical density of aqueous phase was measured spectrophotometrically at 655 nm. The amount of mucus in the gastric mucosa was shown as the amount of alcian blue after calibration (Kitagawa, H., et al., Drug Res. 1986, 36: 1240-1244).
# TNBS-induced colitis [2] = assay: TNBS-induced colitis model, intracolonic (rectal) administration; type: in vivo, male SD rats; settings: once a day for 13 days, rat
# Experimental: (§1) Experiment on the Model of Inflammatory Bowl Diseases Induced with TNBS
# (§2) The modified method of Shibata et al. (Dig. Endosc. 1993, 5: 13) was used. 7 week-aged male SD rats were fasted for a day, and the rats were put under anesthesia and canula (diameter 3 mm) was inserted into the anus to the depth of 8 cm. 25 mg/mL of TNBS (Trinitrobenzene sulfonic acid) dissolved in 50% ethanol solution was injected to each rat and the rats were positioned at feature of tail up for 1 minute. The solution flowing out was removed and the rats were once washed with 1.5 mL of saline solution. After colitis was induced, the compound was administered orally or intracolonically once a day for 13 days. For control, mesalazine (5-amino salicylic acid) was used for oral administration and prednisolone was used for rectal administration. At 14th day of experiment, each group of the rats were put under ether anesthesis, the colon was extracted and the degree of adhesion and extension of the large intestine were measured and their lesion scores were recorded. After 1% formalin solution was injected to the cavity of the extracted colon to inflate, the both ends of it were bonded with each other and it was all-fixed in 1% formalin solution for 2 hours. The all-fixed colon was cut to lengthy direction and washed to remove surrounding fat tissues and connective fissaes. After cecum was removed, the weight of the colon and the rectum was measured, and the area of ulcer lesion, and microscopic lesion were measured to mark scores according to the criterion. And they were fixed in 10% neutral formalin solution, and the tissue examination of lesion site was performed by general method to mark scores according to the criterion.
# Macroscopic evaluation: We measured the number and the width of the ulcer and lesion area formed in the large intestine, by using modified Wallace's method (Can. J. Physiol. Pharmacol., 1988, 66: 422). We scored the lesion examined with the naked eye and compared the average value of each group. The standards of lesion scores as criterion of the damage of the colon by Wallace's method is as followings.
# (§3) (0: normal, non-damaged, 1: congestion without ulcer 2: congestion and thickening of intestinal wall without ulcer, 3: an ulcer lesion without thickening of intestinal wall, 4: more than two ulcerous/inflammatory lesion, 5: more than two ulcerous/inflammatory lesion or the length of ulcerous/inflammatory lesion is more than 1 cm, 6-10: when the length of lesion is over 2 cm, one point increases everytime 1 cm of the length of ulcerous/inflammatory increases, for example, when the ulcer length is 3 cm, the point is 7.)
# neutrophils = assay: Luminol-dependent chemiluminescence of neutrophils induced by FMLP; type: cell-based; settings: Neutrophil, 1 μM FMLP, 0.07 mM luminol; read-out: IC50, inhibition of chemiluminescence generated by neutrophil activation
# Experimental: Measurement of luminol-dependent chemiluminescencei iof neutrophil induced by FMLP.
# 20 mL of 12% sodium caseinate-0.9% saline was administered intraperitoneally (Newsby, A. C., Biochem. J., 1980, 186: 907,. After 20 hours, the intraperitoneal exudate was extracted under ether anesthesia. The exudate was centrifuged, and erythrocytes were removed by hypotonic lysis, and then neutrophil was washed. Neutrophil was ascertained by Wright's dyeing method, and viability was measured by Trypan blue exclusion test. Chemiluminescence was measured by Topcount (Packard Co.). The suspension of 1.5×10^6 of granulocytes, 1 μM of FMLP, 0.07 mM of luminol and the compound in HBSS was used (Dahlgren, C., et al., Infect. Immun., 1985 47: 326-328).
# **IC50 (μg/mL): Concentration of the compound at inhibiting
# chemiluminescence generated by neutrophil activation to 50%
# [3] = system: chronic gastritis induced with acetic acid; assay: Model of chronic gastritis induced with acetic acid; type: in vivo, SD male rat; settings: once a day for 21 days, rat
# Experimental: Experiment on the Model of Chronic Gastritis Induced with Acetic Acid
# From the next day of the surgical operation, the compound was orally administered once a day for 21 days. After 21 days, the stomach was extracted under ether anesthesis, dipped in 1% formalin solution and the area of gastric lesion was measured. […] An pathological tissue autopsy was carried out for the prepared specimen.
# TNBS-induced colitis [4] = assay: TNBS-induced colitis model, oral administration; type: in vivo, male SD rats; settings: for lesion scores: once a day for 13 days, rat; for adhesion degree / dilation and extention degree: score 0-3, rat
# Experimental: as §1
# as §2, with “7” for “The modified method of Shibata et al. (Dig. Endosc. 1993, 5: 13) was used. 7”
# Clinical symptoms: Daily, we observed clinical symptoms and survival of the animals. And we measured the weight of the animals at the beginning day, third and eighth day of the experiment.
# (0: non-adhesion, 1: adhesion exists but easily taken off by gloved hand, 2: more severe adhesion than 1 exists but easily taken off by scissors, 3: very severe adhesion exists, so it is difficult to be taken off by scissors because of possibility of its perforation.)
# Degree of thickening and extension of the large intestine: We marked scores of the degree of thickness and extension of the large intestine according to the criterion, following the method of Kim et al., and compared with the average value of each group.
# (0: lesion site non-existing, 1: a few degree of lesion, 2: intermediate degree of lesion, 3: severe degree of lesion)
# We scored the lesion examined with the naked eye and compared the average value of each group. The standards of lesion scores as criterion of the damage of the colon by Wallace's method is as followings.
# as §3
# Microscopic evaluation: We trimmed the colon giving 3 cm interval from the rectum to the cecum, including the site of lesion examined with the naked eye, to make at least 4 specimens per an individual. […] When the lesion can not be examined with the naked eye, we trimmed the other specimen which has the lesion, with 3 cm interval.
structure (smiles),measurement,setting,value
"CCCCCOc1cc2c(=O)cc(-c3ccc(OC)c(OC)c3)oc2cc1OCC(=O)O [7-carboxymethyloxy-3',4'-dimethoxy-6-n-pentyloxy flavone]",IC50,5-lipoxygenase,2.8 µM
"CCCCOc1c(OCC(=O)O)cc2oc(-c3ccc(OC)c(OC)c3)cc(=O)c2c1O [7-carboxymethyloxy-5-hydroxy-6-n-butyloxy-3',4'-dimethoxy flavone]",inhibition in vivo at 0.1 mg/kg,[1]; 0.1 mg/kg p.o.,43%
same,inhibition in vivo at 1 mg/kg,[1],61%
same,inhibition in vivo at 10 mg/kg,[1]; 10 mg/kg p.o.,63%
same,"SC200, concentration increasing generation of PGF1α to 200%",cyclooxygenase,2.41 µg/mL
same,IC50,5-lipoxygenase,26.3 µM
"COc1ccc(-c2cc(=O)c3c(OC)cc(OCC(=O)O)cc3o2)cc1OC [7-carboxymethyloxy-3',4',5-trimethoxy flavone]",inhibition in vivo at 0.3 mg/kg,[1],58%
same,inhibition in vivo at 1 mg/kg,[1],68%
same,inhibition in vivo at 3 mg/kg,[1],85%
same,"gastric mucus secretion, % Control",gastric mucus secretion; 0.3 mg/kg,126.5 % Control
same,"gastric mucus secretion, % Control",gastric mucus secretion; 3 mg/kg,122.8 % Control
same,"gastric mucus secretion, % Control",gastric mucus secretion; 30 mg/kg,117.9 % Control
same,"SC200, concentration increasing generation of PGF1α to 200%",cyclooxygenase,14.35 µg/mL
same,IC50,5-lipoxygenase,35.5 µM
"C[C@]12C=CC(=O)C=C1CC[C@@H]1[C@@H]2[C@@H](O)C[C@@]2(C)[C@H]1CC[C@]2(O)C(=O)CO [prednisolone, reference compound]",lesion scores,TNBS-induced colitis [2]; 1 mg/kg rectally,0.83
"COc1ccc(-c2cc(=O)c3c(O)c(OC)c(OCC(=O)O)cc3o2)cc1OC [7-carboxymethyloxy-5-hydroxy-3',4',6-trimethoxy flavone]",inhibition in vivo at 0.3 mg/kg,[1],16%
same,inhibition in vivo at 1 mg/kg,[1],77%
same,inhibition in vivo at 3 mg/kg,[1],56%
same,IC50,neutrophils,1.73 µg/mL
same,"SC200, concentration increasing generation of PGF1α to 200%",cyclooxygenase,18.41 µg/mL
"COc1ccc(-c2cc(=O)c3c(OC)c(OC)c(OCC(=O)[O-])cc3o2)cc1OC.[Na+] [7-carboxymethyloxy-3',4',5,6-tetramethoxy flavone sodium salt]",inhibiting% (gastric lesion),[3]; 0.3 mg/kg p.o.,10%
same,inhibiting% (gastric lesion),[3]; 3 mg/kg p.o.,29%
same,inhibiting% (gastric lesion),[3]; 10 mg/kg p.o.,42%
same,lesion scores,TNBS-induced colitis [4]; 1 mg/kg p.o.,1.3
same,adhesion degree,TNBS-induced colitis [4]; 1 mg/kg p.o.,0.5
same,dilation and extention degree,TNBS-induced colitis [4]; 1 mg/kg p.o.,0.3
same,lesion scores,TNBS-induced colitis [4]; 10 mg/kg p.o.,0.8
same,adhesion degree,TNBS-induced colitis [4]; 10 mg/kg p.o.,0.6
same,dilation and extention degree,TNBS-induced colitis [4]; 10 mg/kg p.o.,0.4
same,lesion scores,TNBS-induced colitis [2]; 0.3 mg/kg rectally,2.56
same,lesion scores,TNBS-induced colitis [2]; 3 mg/kg rectally,2.60
"COc1ccc(-c2cc(=O)c3c(OC)cc(OCC(=O)[O-])cc3o2)cc1OC.[Na+] [7-carboxymethyloxy-3',4',5-trimethoxy flavone sodium salt]",inhibiting% (gastric lesion),[3]; 0.3 mg/kg p.o.,4%
same,inhibiting% (gastric lesion),[3]; 3 mg/kg p.o.,83%
same,inhibiting% (gastric lesion),[3]; 10 mg/kg p.o.,80%
same,lesion scores,TNBS-induced colitis [2]; 0.3 mg/kg rectally,4.43
same,lesion scores,TNBS-induced colitis [2]; 3 mg/kg rectally,0.86
